# Paper PMC9995911, “Lipid environment determines the drug-stimulated ATPase activity of P-glycoprotein” (Frontiers in Molecular Biosciences, 2023)
# What was measured:
# Pgp = molecular target: T1, Pgp (Mus musculus, UniProt P21447); assay: Thermostability of purified Pgp in detergent solution (CPM dye fluorescence on heating); details: Pgp purified in 0.05% DDM containing 0.01% CHS (DDM/CHS); Pgp in DDM alone ~40 °C
# T1 construct: made in house; host or cells: Pichia pastoris
# Description: Figure S1: CHS increases the thermostability of purified Pgp in DDM detergent solution.
# Pgp was purified from microsomal membranes as detailed in Methods in either 0.05% DDM or 0.05% DDM containing 0.01% CHS (DDM/CHS). Samples were incubated with 2 µM of the cysteine-reactive dye 7-Diethylamino-3-(4'-maleimidylphenyl)-4-methylcoumarin (CPM), and the increase in fluorescence upon heating the samples with a temperature ramp of 1 °C/min was monitored with excitation/ emission wavelengths of 384/470 nm. Increase in fluorescence is due to protein unfolding and exposure of reactive cysteines in Pgp. The melting temperature Tm was ~40 °C for Pgp in DDM solution, similar to that reported for Pgp by other methods (Yang et al., […]
# 2017). […] Representatives of three independent experiments are shown.
# (1 picture or pasted object on this page, not shown here)
# Mouse mdr1a Pgp = molecular target: T2, Mouse mdr1a Pgp (Mus musculus, UniProt P21447); assay: Verapamil-stimulated ATPase activity of purified Pgp in DDM detergent activated with lipids (detergent-lipid micelles); type: biochemical; details: ATPase in the absence of verapamil; Pgp in DDM activated with 1% of the named lipid (Table 2)
# T2 construct: made in house; host or cells: Pichia pastoris
# T2 sequence (P21447 whole entry): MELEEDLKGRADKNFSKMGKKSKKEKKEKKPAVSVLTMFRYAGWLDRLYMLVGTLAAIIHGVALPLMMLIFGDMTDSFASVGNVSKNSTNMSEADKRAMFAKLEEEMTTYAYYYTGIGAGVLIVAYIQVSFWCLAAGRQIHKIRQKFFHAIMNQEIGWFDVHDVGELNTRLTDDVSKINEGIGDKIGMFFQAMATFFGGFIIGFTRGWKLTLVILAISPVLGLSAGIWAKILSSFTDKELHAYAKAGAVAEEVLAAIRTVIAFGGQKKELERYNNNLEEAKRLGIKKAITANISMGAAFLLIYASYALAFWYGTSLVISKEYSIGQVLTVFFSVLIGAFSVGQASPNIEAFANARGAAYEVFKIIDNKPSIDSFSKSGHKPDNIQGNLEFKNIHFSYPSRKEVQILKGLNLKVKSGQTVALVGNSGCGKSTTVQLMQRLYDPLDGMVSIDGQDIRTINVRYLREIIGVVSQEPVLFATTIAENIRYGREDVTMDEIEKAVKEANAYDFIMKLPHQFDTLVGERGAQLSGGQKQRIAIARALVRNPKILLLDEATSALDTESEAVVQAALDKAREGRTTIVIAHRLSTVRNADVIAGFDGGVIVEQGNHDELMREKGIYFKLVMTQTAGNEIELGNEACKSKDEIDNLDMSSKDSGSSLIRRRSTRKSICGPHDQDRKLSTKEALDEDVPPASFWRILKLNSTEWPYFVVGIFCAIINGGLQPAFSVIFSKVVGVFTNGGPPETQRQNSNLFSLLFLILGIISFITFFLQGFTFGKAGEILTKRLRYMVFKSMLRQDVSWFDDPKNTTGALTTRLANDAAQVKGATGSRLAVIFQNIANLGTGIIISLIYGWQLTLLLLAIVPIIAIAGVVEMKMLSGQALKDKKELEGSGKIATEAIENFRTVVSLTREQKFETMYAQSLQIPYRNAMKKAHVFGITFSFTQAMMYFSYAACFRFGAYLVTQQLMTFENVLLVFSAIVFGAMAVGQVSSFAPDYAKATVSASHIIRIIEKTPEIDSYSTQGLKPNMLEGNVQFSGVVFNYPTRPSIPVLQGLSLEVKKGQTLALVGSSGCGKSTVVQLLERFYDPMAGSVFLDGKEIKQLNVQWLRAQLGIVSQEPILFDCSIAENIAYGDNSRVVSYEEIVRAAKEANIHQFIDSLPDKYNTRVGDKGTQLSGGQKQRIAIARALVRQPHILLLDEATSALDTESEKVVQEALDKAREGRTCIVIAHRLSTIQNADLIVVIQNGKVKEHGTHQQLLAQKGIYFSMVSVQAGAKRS
# Description: All purification buffers contained 50 mM Tris pH 8, 10% glycerol, and 500 mM NaCl (Buffer A). Detergent concentrations were reduced to 0.05% DDM during chromatography. Pgp was eluted from the Strep-Tactin superflow resin (Qiagen, Valencia, CA) in the presence of 1 mM DTT, 1 mM TCEP by competition with 4 mM desthiobiotin.
# T1 sequence (P21447 whole entry): as above
Basal activity (Mouse mdr1a Pgp) [µmol/min/mg],Structure (SMILES),melting temperature Tm of Pgp (Pgp)
–,"CC(C)CCC[C@@H](C)[C@H]1CC[C@H]2[C@@H]3CC=C4C[C@@H](OC(=O)CCC(=O)O)CC[C@]4(C)[C@H]3CC[C@]12C [CHS, cholesteryl hemisuccinate]",52 ºC
0.05,"CCCCCCCC/C=C\CCCCCCCC(=O)O[C@H](COC(=O)CCCCCCCCCCCCCCC)COP(=O)([O-])OCC[N+](C)(C)C [POPC only, 1-palmitoyl-2-oleoyl-sn-glycero-3-phosphocholine]",–
